IC50, Selectivity ratio and Ki data for 13 molecules are collected here from ChEMBL document CHEMBL1151743, “Dual inhibitors of matrix metalloproteinases and carbonic anhydrases: iminodiacetyl-based hydroxamate-benzenesulfonamide conjugates” (J Med Chem, 2008).

Among the targets are Collagenase 3 (Homo sapiens, UniProt P45452); Carbonic anhydrase 2 (Homo sapiens, UniProt P00918); Carbonic anhydrase 1 (Homo sapiens, UniProt P00915).
Experiment [1] deals with 72 kDa type IV collagenase (Homo sapiens, UniProt P08253). The experiment can be described thus: Inhibition of human recombinant MMP2 transfected in mouse melanoma cells. In kind it is cell-based.
Sequence of 72 kDa type IV collagenase (P08253 whole entry): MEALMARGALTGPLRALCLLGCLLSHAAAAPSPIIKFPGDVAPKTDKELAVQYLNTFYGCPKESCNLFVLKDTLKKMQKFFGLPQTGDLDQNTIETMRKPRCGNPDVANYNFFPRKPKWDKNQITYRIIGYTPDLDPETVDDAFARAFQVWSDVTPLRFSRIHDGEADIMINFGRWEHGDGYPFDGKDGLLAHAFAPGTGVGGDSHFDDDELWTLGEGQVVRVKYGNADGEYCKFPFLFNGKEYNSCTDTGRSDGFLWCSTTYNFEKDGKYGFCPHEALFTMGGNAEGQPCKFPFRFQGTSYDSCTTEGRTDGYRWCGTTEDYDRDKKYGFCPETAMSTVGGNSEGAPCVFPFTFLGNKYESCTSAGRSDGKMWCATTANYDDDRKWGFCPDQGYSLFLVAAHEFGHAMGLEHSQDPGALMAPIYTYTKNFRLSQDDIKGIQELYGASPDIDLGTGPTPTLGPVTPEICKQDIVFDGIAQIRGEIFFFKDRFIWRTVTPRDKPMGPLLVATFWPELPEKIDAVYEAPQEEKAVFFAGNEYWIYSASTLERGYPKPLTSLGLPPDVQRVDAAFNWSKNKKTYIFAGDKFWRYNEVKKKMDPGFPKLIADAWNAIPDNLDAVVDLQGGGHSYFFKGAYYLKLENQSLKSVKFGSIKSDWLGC
A further experiment has as its target Neutrophil collagenase (Homo sapiens, UniProt P22894). The experiment can be described thus: Inhibition of MMP8.
Experiment [2] concerns the target Matrix metalloproteinase-14 (Homo sapiens, UniProt P50281). As to the kind of experiment: Inhibition of MMP14.
The target in experiment [3] is Matrix metalloproteinase-16 (Homo sapiens, UniProt P51512). The experiment can be described thus: Inhibition of MMP16.
Sequence of Matrix metalloproteinase-16 (P51512 whole entry): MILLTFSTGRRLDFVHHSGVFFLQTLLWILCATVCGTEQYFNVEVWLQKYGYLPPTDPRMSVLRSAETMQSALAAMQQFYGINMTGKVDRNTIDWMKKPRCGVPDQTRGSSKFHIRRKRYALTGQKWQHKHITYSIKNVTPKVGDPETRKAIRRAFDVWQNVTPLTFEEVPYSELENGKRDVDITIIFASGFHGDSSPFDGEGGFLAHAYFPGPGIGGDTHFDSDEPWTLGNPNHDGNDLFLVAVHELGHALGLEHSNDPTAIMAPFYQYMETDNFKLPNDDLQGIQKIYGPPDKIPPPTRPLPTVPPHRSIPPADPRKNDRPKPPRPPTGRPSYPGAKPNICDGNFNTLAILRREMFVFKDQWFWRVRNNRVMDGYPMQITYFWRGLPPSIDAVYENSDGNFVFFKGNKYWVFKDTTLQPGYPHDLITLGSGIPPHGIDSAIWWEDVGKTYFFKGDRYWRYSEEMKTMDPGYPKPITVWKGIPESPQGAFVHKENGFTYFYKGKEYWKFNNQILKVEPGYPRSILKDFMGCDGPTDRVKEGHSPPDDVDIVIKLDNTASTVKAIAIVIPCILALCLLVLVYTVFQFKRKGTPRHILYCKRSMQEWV
In experiment [4] the target is Matrix metalloproteinase-9 (Homo sapiens, UniProt P14780). As to the kind of experiment: Inhibition of MMP9.
Sequence of Matrix metalloproteinase-9 (P14780 whole entry): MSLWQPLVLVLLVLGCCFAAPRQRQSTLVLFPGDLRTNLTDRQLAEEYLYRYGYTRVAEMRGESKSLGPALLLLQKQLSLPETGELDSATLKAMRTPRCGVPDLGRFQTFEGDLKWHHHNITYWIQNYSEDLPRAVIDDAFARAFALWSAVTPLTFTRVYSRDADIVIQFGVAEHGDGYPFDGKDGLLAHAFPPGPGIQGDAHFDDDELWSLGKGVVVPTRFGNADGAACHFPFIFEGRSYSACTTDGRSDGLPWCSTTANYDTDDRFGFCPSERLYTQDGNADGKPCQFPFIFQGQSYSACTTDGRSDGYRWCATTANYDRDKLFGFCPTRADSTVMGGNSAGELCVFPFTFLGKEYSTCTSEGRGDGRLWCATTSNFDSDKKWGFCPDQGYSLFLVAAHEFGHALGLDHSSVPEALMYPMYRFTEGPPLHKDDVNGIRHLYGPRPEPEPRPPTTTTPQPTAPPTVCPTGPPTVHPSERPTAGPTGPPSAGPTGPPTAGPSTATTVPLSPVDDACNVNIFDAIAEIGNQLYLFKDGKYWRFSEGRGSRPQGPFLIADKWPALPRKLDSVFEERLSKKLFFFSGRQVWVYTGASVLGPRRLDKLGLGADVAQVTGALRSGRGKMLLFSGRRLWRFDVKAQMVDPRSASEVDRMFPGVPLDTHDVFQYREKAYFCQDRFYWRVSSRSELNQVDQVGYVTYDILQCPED
A further experiment deals with T1, Interstitial collagenase (Homo sapiens, UniProt P03956).
T1 sequence (P03956 whole entry): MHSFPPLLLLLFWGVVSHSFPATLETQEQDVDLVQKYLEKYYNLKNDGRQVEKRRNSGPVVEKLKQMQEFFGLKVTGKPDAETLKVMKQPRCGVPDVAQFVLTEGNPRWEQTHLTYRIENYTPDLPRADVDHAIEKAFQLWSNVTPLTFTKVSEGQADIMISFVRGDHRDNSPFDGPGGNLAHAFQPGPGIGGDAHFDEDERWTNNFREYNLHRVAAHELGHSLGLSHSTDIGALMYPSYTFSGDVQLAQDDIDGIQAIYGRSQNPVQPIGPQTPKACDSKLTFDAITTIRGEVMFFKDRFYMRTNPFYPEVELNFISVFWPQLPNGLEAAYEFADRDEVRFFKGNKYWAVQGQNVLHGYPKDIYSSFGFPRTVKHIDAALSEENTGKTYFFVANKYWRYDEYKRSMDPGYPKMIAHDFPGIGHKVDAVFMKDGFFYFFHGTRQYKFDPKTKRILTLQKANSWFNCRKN
The experiment can be described thus: Inhibition of MMP1.

Experiment [5] is filed under the species Homo sapiens. The experiment can be described thus: Selectivity for human recombinant CA9 to human recombinant CA2.
The species named for experiment [6] is Homo sapiens. The experiment can be described thus: Selectivity for human recombinant CA9 to human recombinant CA1.
In experiment [7] the target is Disintegrin and metalloproteinase domain-containing protein 17 (Homo sapiens, UniProt P78536). As to the kind of experiment: Inhibition of TACE.
Sequence of Disintegrin and metalloproteinase domain-containing protein 17 (P78536 whole entry, the tested form may be a part): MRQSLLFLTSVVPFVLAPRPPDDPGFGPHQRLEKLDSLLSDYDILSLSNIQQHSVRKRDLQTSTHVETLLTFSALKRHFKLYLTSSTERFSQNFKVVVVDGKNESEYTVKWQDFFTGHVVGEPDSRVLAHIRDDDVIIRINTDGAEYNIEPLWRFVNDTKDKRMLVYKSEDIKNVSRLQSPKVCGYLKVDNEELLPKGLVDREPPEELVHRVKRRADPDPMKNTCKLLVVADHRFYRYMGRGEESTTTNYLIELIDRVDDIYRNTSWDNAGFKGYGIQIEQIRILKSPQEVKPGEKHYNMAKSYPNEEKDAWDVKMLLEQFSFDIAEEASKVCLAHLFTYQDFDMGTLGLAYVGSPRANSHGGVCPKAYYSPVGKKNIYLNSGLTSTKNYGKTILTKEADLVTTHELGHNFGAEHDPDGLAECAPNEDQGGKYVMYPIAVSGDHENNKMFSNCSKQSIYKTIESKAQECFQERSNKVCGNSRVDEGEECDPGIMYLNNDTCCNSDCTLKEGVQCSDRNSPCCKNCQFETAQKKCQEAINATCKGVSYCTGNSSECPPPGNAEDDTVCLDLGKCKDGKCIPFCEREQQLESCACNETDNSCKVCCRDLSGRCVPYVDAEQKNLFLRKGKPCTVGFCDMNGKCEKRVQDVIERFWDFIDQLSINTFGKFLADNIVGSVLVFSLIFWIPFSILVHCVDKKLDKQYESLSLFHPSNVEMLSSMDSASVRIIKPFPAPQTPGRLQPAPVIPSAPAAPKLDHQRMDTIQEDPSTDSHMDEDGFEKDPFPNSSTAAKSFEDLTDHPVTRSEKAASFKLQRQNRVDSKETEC
Another experiment deals with Carbonic anhydrase 9 (Homo sapiens, UniProt Q16790). The experiment can be described thus: Inhibition of human recombinant CA9 catalytic domain by stopped-flow CO2 hydrase assay.

Sequence of Carbonic anhydrase 1 (P00915 whole entry): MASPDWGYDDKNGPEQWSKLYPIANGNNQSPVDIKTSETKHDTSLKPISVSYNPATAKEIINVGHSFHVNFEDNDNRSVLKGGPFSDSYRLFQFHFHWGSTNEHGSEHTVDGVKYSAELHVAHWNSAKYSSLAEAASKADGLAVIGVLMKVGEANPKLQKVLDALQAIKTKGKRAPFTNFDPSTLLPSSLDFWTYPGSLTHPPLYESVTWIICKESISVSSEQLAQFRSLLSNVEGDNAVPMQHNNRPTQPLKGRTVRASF
Sequence of Neutrophil collagenase (P22894 whole entry): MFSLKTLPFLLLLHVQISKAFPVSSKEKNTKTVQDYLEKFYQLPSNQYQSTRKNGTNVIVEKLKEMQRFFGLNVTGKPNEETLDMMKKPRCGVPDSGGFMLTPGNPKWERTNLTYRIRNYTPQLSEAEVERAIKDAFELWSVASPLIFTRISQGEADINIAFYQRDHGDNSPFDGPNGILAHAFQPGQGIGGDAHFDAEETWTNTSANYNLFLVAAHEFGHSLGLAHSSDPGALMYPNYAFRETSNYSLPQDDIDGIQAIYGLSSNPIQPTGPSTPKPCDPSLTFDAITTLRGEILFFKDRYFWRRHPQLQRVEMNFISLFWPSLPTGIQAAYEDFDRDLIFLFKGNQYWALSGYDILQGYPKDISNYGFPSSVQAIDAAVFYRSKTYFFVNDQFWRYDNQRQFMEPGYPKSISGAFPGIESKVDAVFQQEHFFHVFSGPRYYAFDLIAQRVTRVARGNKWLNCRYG
Description for Carbonic anhydrase 1: Inhibition of human recombinant CA1 by stopped-flow CO2 hydrase assay
Description for Carbonic anhydrase 2: Inhibition of human recombinant CA2 by stopped-flow CO2 hydrase assay

On to `NS(=O)(=O)c1ccc(CCNC(=O)CN(CC(=O)NO)S(=O)(=O)c2ccc(-c3ccccc3)cc2)cc1`, for which the IC50 (commonly the point on the concentration scale where inhibition reaches its midpoint) was determined as 16.2 nM in [1]; 35 nM on Neutrophil collagenase; 260 nM in experiment [2]; 186 nM in [3]; 66 nM in experiment [4]; 542 nM at Interstitial collagenase.

`COc1ccc(S(=O)(=O)N(CC(=O)O)[C@@H](C(=O)NO)C(C)C)cc1`: the Selectivity ratio in the experiment filed under Homo sapiens [5] is 1.3; in the experiment filed under Homo sapiens [6] it was 7.9. Moreover, the IC50 in [1] amounted to 145 nM; against Neutrophil collagenase it was 29.2 nM; in experiment [2], 353 nM; in [4], 62 nM; against Interstitial collagenase, 235 nM.

For `CC(C)[C@H](C(=O)NO)N(CC(=O)NCCc1ccc(S(N)(=O)=O)cc1)S(=O)(=O)c1ccc(Oc2ccccc2)cc1`, in the experiment listed under Homo sapiens [5], the Selectivity ratio was 1.3. The IC50 against Collagenase 3 was determined as 0.12 nM; in experiment [7], 55 nM; in experiment [1], 0.35 nM; against Neutrophil collagenase, 0.29 nM; in [2] it was 0.32 nM; in [3], 0.31 nM. The IC50 is 0.21 nM in experiment [4] and 7.8 nM against Interstitial collagenase. The Ki (as a rule, the dissociation constant of the complex between target and ligand, obtained from inhibition or displacement) at Carbonic anhydrase 9 is 3.3 nM; at Carbonic anhydrase 2 it was 4.2 nM; on Carbonic anhydrase 1, 730 nM.

In the case of `COc1ccc(S(=O)(=O)N(CC(=O)NO)CC(=O)NCCc2ccc(S(N)(=O)=O)cc2)cc1`, the IC50 in [1] is 25.3 nM; against Neutrophil collagenase it was 59 nM; in experiment [2], 89.8 nM; in experiment [3], 44 nM; in [4], 53.7 nM; against Interstitial collagenase it was 532 nM. The inhibition constant (Ki) on Carbonic anhydrase 9 was determined as 13 nM; on Carbonic anhydrase 1, 1770 nM.

With `NS(=O)(=O)c1ccc(CCNC(=O)CN(CC(=O)NO)Cc2ccccc2)cc1`, the results for the IC50 in experiment [1], in experiment [2] and in [4] were more than 100000 nM, more than 100000 nM and more than 300000 nM, respectively. The Ki on Carbonic anhydrase 1 came to 2340 nM.

Consider `COc1ccc(S(=O)(=O)N(CC(=O)O)CC(=O)NO)cc1`, for which the IC50 in [1] came out at 193 nM; at Neutrophil collagenase it was 1010 nM; in experiment [2], 1690 nM; in [3], 996 nM; in experiment [4] it was 322 nM; against Interstitial collagenase it was 6770 nM.

Consider `CC(C)[C@H](C(=O)NO)N(CC(=O)O)S(=O)(=O)c1ccc(Oc2ccccc2)cc1`, for which the figures for the Selectivity ratio in the experiment listed under Homo sapiens [5] and in the experiment filed under Homo sapiens [6] were 1.3 and 7.9, respectively. Also, the IC50 is 0.33 nM on Collagenase 3; 2290 nM in experiment [7]; 0.5 nM in experiment [1]; 0.4 nM at Neutrophil collagenase; 3.9 nM in [2]; 1.56 nM in experiment [3]. The 50% inhibitory concentration (IC50) was determined as 0.77 nM in [4] and 59 nM against Interstitial collagenase.

For `NS(=O)(=O)c1ccc(CCNC(=O)CN(CC(=O)NO)S(=O)(=O)c2ccc(Oc3ccccc3)cc2)cc1`, the IC50 is 1.57 nM in experiment [1]; 0.74 nM on Neutrophil collagenase; 2.1 nM in experiment [2]; 1 nM in experiment [3]; 0.51 nM in [4]; 143 nM at Interstitial collagenase.

For the molecule `O=C(O)CN(CC(=O)NO)S(=O)(=O)c1ccc(Oc2ccccc2)cc1`, the Selectivity ratio in the experiment listed under Homo sapiens [5] worked out at 1.3; in the experiment listed under Homo sapiens [6], 7.9. In addition, the IC50 came to 1.6 nM at Collagenase 3; 1.2 nM in experiment [1]; 3.7 nM against Neutrophil collagenase; 14 nM in experiment [2]; 11.4 nM in experiment [3]; 3.2 nM in [4]. The molecule further gave an IC50 against Interstitial collagenase of 1530 nM.

Turning to `NS(=O)(=O)c1ccc(CCNC(=O)CN(CC(=O)O)S(=O)(=O)c2ccc(-c3ccccc3)cc2)cc1`, the IC50 in experiment [1] is 5120 nM; on Neutrophil collagenase, 8200 nM; in experiment [2], 33900 nM. For the same molecule, the Ki at Carbonic anhydrase 9 worked out at 3.8 nM; at Carbonic anhydrase 1, 116 nM.

Take `CC(C)[C@H](C(=O)NO)N(CC(=O)O)S(=O)(=O)c1ccc(-c2ccccc2)cc1`: the Selectivity ratio was determined as 1.3 in the experiment filed under Homo sapiens [5] and 7.9 in the experiment listed under Homo sapiens [6]. The IC50 was 24.7 nM in experiment [1]; 4.3 nM on Neutrophil collagenase; 306 nM in experiment [2]; 27.7 nM in [4]; 236 nM on Interstitial collagenase.

Take `COc1ccc(S(=O)(=O)N(Cc2cccnc2)[C@@H](C(=O)NO)C(C)C)cc1` [CGS-27023A]: in experiment [3], the IC50 amounted to 6.8 nM.

`NS(=O)(=O)c1ccc(CCNC(=O)CN(CC(=O)O)S(=O)(=O)c2ccc(Oc3ccccc3)cc2)cc1`: the IC50 in experiment [1] was determined as 2230 nM; at Neutrophil collagenase, 4360 nM; in experiment [2], 8950 nM. Besides, the Ki on Carbonic anhydrase 9 was determined as 6.4 nM; on Carbonic anhydrase 1, 3430 nM.
